Tests used:
[1] = RP-HPLC retention on Purosphere RP-18e (ODS) column, buffer pH 7.4-acetonitrile; assay type: physicochemical; details: for log kw, ODS: extrapolated to buffer pH 7.4 as mobile phase, 25 °C; for s ODS: slope of Soczewiński-Wachtmeister equation, acetonitrile φ 0.3–0.6
In short: (§1)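 Mobile phase: pH 7.4 Na2HPO4/citric acid buffer (0.01 mol L^−1) with acetonitrile at several volume fractions per column; 25 °C, UV detection at 210 and 254 nm, citric acid as dead-time marker. log kw extrapolated to pure buffer by Soczewiński-Wachtmeister equation; mean of ≥3 independent measurements.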

[2] = RP-HPLC retention on IAM.PC.DD2 (immobilized artificial membrane) column, buffer pH 7.4-acetonitrile; assay type: physicochemical; details: for log kw, IAM: extrapolated to buffer pH 7.4 as mobile phase, 25 °C; for s IAM: slope of Soczewiński-Wachtmeister equation, acetonitrile φ 0.2–0.5
In short: as §1

[3] = RP-HPLC retention on Cosmosil Cholester column, buffer pH 7.4-acetonitrile; assay type: physicochemical; details: for log kw, Cholester: extrapolated to buffer pH 7.4 as mobile phase, 25 °C; for s Cholester: slope of Soczewiński-Wachtmeister equation, acetonitrile φ 0.4–0.6
In short: as §1

[4] = system: Herpes simplex virus type 1; set-up: method as in PMID 30807815; details: cited from earlier work
[5] = system: normal Vero cells; set-up: method as in PMID 30807815; details: cited from earlier work
[6] = system: erythrocytes; set-up: method as in PMID 30807815; details: cited from earlier work
[7] = system: human cancer cells; set-up: method as in doi:10.1016/j.arabjc.2016.12.024, PMID 24126095; details: cited from earlier work
[8] = system: normal cells; set-up: method as in doi:10.1016/j.arabjc.2016.12.024, PMID 24126095; details: cited from earlier work
[9] = set-up: method as in PMID 24157086, PMID 25528370; details: cited from earlier work

Row | SMILES | log kw, ODS [1] | s ODS [1] | log kw, IAM [2] | s IAM [2] | log kw, Cholester [3] | s Cholester [3] | potency against Herpes simplex virus type 1 [4] | toxicity to normal Vero cells [5] | oxidatively-induced haemolysis of erythrocytes [6] | antiproliferative activities in human cancer cells [7] | toxic effects for normal cells [8] | antinociceptive effect in mice [9]
1 | CCc1nnc2n(c1=O)CCN2c1ccc(Cl)c(Cl)c1 [Compound 6] | 2.53 | 4.49 | 1.85 | 4.11 | 2.05 | 3.61 | remarkable concentration-dependent potency | low toxicity | inhibiting the oxidatively-induced haemolysis | significant antiproliferative activities | less toxic effects | –
2 | CCOc1ccc(N2CCn3c2nnc(Cc2ccccc2)c3=O)cc1 [Compound 51] | 3.28 | 5.61 | 2.11 | 4.51 | 2.68 | 4.55 | – | – | – | – | – | strongest antinociceptive effect
3 | O=c1c(Cc2ccccc2Cl)nnc2n1CCN2c1ccccc1 [Compound 42] | 3.28 | 5.10 | 2.34 | 4.78 | 2.83 | 4.71 | – | – | – | – | – | strongest antinociceptive effect
4 | COC(=O)Cc1nnc2n(c1=O)CCN2c1ccc(C)cc1 [Compound 8] | 1.90 | 3.82 | 1.33 | 3.33 | 1.29 | 2.75 | – | – | – | – | – | strongest antinociceptive effect
